# In patent US20210123061A1, “METHODS AND COMPOSITIONS FOR TREATING INFLAMMATORY DISEASE OR DISORDER” (THE BRIGHAM AND WOMEN'S HOSPITAL, INC., priority 2018, published 2021):
# Tested on: activated macrophages (CD45+ CD11b+ F4/80+ CD86+ cells)
# Assay: Mouse model of thioglycollate-elicited peritonitis, flow cytometry of peritoneal cells
# Type: in vivo, mice
# Settings: 30 mg/kg intraperitoneally, twice; 24 hours after thioglycollate
# Protocol: FIGS. 5A-5D show RSK activity plays a key role for pro-inflammatory activation of macrophages in peritonitis model. (FIG. 5A) Model overview—mice were injected intraperitoneally with vehicle or 30 mg/kg BI-D1870. Twenty-four hours after the injection, 4% thioglycollate as well as vehicle or 30 mg/kg BI-D1870 were injected intraperitoneally in the mice. Forty-eight hours after the first injection, peritoneal cells were harvested. (FIG. 5B) Representative results of flow cytometry. Peritoneal cells were incubated with APC-Cy7-anti-CD45, FITC-anti-F4/80, APC-anti-CD11b, and PE-Cy7-anti-CD86 followed by flow-cytometry analysis. (FIG. 5C) Ratio of CD86-positive cells in peritoneal macrophages. Data are means±SE. N=10 mice. *P<0.05 indicates significance compared to control (vehicle) by unpaired Student's test. (FIG. 5D) Cell numbers of peritoneal CD86-positive macrophages. Data are means±SE. N=10 mice. *P<0.05 indicates significance by unpaired Student's test.
# Mouse peritonitis model. C57BL/6J wild type mice (12 weeks old, male) were purchased from Jackson Laboratory. We injected intraperitoneally with vehicle (30% PEG400, 0.5% Tween80, 5% Propylene glycol) or 30 mg/kg BI-D1870 (Selleck Chemicals). […]
# Flow cytometry. […] After washing cells with EasySep Buffer, stained cells were analyzed by BD FACSAria II (BD Bioscience) and FlowJo software (FlowJo LLC).
structure (smiles),measurement,value
CC(C)CCN1c2nc(Nc3cc(F)c(O)c(F)c3)ncc2N(C)C(=O)C1C (centres unmarked) [BI-D1870],accumulation of activated macrophages in peritoneal cavity,suppressed
same,ratio of activated macrophages to total macrophages,suppressed
